The numbers were not newly measured in article PMC6394990, “Detailed characterization of the solution kinetics and thermodynamics of biotin, biocytin and HABA binding to avidin and streptavidin” (PLoS ONE, 2019), which cites them from elsewhere.

The target in the data set is T1, avidin (AV) (Gallus gallus, UniProt P02701).
T1 construct: purchased Calbiochem (La Jolla, CA)
As to conditions: free biotin, AV, read from a literature plot, cited from earlier work; for Off rate constants, rate: in s^-1 (unit assumed); for Off rate constants, ln k: the values are: ln koff.

Like-named read-outs stand apart in the source and are kept apart here.

T1 sequence (P02701 25-152): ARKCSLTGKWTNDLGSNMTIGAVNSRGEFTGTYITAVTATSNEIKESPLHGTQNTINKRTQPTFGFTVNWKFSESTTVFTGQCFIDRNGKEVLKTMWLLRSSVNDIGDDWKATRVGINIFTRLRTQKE

Take `O=C(O)CCCC[C@@H]1SC[C@@H]2NC(=O)N[C@@H]21` [free biotin]: the “Off rate constants, rate” value by setting is: (43 C) 5.623e-6; (55 C) 6.31e-5; (66 C) 0.0005623. Further, the Off rate constants, ln k (43 C) is -12.1; the Off rate constants, ln k (55 C) is -9.67; the Off rate constants, ln k (66 C) was -7.48.
